In US5709901A (priority 1994, dated 1998):
“Also recorded” adds a separate entry of the source. Square brackets hold non-standard residues; d marks the D form. Peptide text beside a SMILES is read from it. * marks the point of attachment. Sta = CC(C)C[C@H](N)[C@@H](O)CC(=O)O; Isovaleryl = CC(C)CC(=O)*

Assays:
[1] = test system: PF-1; type: biochemical, Bacillus sp. KSM-PF1; details: for residual activity of PF-1 relative to control as 100: pH 7
[2] = test system: PF-2; type: biochemical, Bacillus sp. KSM-PF2; details: for residual activity of PF-2 relative to control as 100: pH 7
[3] = Meat tenderization test, 5-mm thick round (Example 3, FIG. 1); details: for tenderizing effect (in words) / time in which the tenderizing effect is exerted: 5-mm thick meat, 20° C., per 10 g: PF-1 100 U, papain 10 U or 1 U, elastase 250 U; for tenderizing effect (in words): PF-2 45 U; for time to overtenderizing effect: 5 mm or 15 mm
Protocol: The metalloprotease of the present invention preferably tenderizes round in such a manner that the shear force value of the round thus tenderized is from 20% to 70% (preferably from 25% to 65%, particularly from 30% to 50% of that of the untenderized round (round which has not been processed with the metalloprotease of the present invention) when the round has a thickness of 5 mm. The shear force value as defined herein is determined by subjecting the meat sample to cutting by a meat shear (Warner Bratzler Type 3000, available from Warner Bratzler Corp.). The meat sample is obtained by subjecting round to enzymatic processing at a temperature of 20° C., and then grilled-the round thus processed on both sides thereof at 200° C. (grilled on one side for 1 minute and one the other side for 45 seconds).
As the meat to be tested there was used a low grade round (100 g) imported from Australia. The meat was sliced to 5-mm thick pieces by a meat slicer. Prominent strings were removed. About 20 g of the sliced meat was then molded. The molded meat was uniformly sprinkled with the enzyme powder, covered with a wrap, and then allowed to stand at room temperature (20° C.) for a predetermined period of time. The meat thus processed was then grilled over a 200° C. hot plate for 1 minute on one side and for 45 seconds on the other side. The meat thus grilled was then cut into 3-cm wide strips. The strips were then measured for shear force value (SFV) by means of a meat shear (Warner Bratzler Type 3000, available from Warner Bratzler Corp.). As comparative enzymes, a papain powder (available from Amano Co., Ltd.) and an elastase powder (reagent available from Sigma Co., Ltd.) were subjected to the same meat tenderization test as mentioned above.

[4] = Meat tenderization test, 15-mm thick round (Example 4, FIG. 2); details: 15-mm thick meat, 20° C., per 10 g: PF-1 100 U, papain 10 U or 1 U, elastase 250 U; for tenderizing effect (in words): PF-2 45 U
Protocol: The same meat as used in Example 3 was sliced perpendicular to muscular fibers to 15-mm thick pieces by a meat slicer. A maximum homogeneous portion of the sliced meat was molded into an about 30 g rod. The molded meat was uniformly sprinkled with the enzyme powder, covered with a wrap, and then allowed to stand at room temperature (20° C.) for a predetermined period of time. The meat thus processed was then grilled over a 200° C. hot plate for 3 minutes on each side. The meat thus grilled was cut into 2-cm wide strips which were then measured for shear force value in the same manner as in Example 3. As comparative enzymes, the same papain powder (available from Amano Co., Ltd.) and elastase powder (reagent available from Sigma Co., Ltd.) as used in Example 3 were subjected to the same meat tenderization test as mentioned above.

[5] = Meat tenderization test of conventional proteases (background); details: for time to overtenderize the meat: 0.1 based on the weight of the meat
Text: As a meat tenderizer there has been heretofore used a protease. One of the most frequently used meat tenderizers is papain derived from papaya. However, papain is disadvantageous in that it is hard to control in tenderization (i.e., control over the progress of tenderization to a proper level) and its use is restricted by the added amount thereof and the processing time. In fact, papain was subjected to meat tenderization test. As a result, even when used in an amount as extremely small as 0.1 based on the weight of the meat to be tested, this enzyme overtenderized the meat within 1 hour at room temperature and in a period of time as short as 24 hours at a temperature as low as 4° C. The meat thus overtenderized was too unsavory to be served. This is because proteases derived from plants have a low substrate specificity.
On the other hand, a method has been proposed which comprises the specific decomposition of a connective tissue in a meat with elastase, which has a high substrate specificity, to tenderize the meat (JP-A-4-197156 (The term "JP-A" as used herein means an "unexamined published Japanese patent application"), JP-A-5-276899). However, this approach is disadvantageous in that elastase is hard to produce and must be used in a relatively large amount and requires a prolonged processing time to exert desired effects as compared with the foregoing proteases. It has also been point out that elastase cannot tenderize a meat sufficiently even if the added amount thereof and the processing time are increased (JP-A-6-169729).

## O[C@H](CS)[C@H](O)CS (racemic) [DTT, dithiothreitol]
[1]
  inhibition of PF-1 activity (in words): not inhibited
  residual activity of PF-1 relative to control as 100: 70%
[2]
  inhibition of PF-2 activity (in words): not inhibited
  residual activity of PF-2 relative to control as 100: 81%

## [Ca+2].[Cl-].[Cl-] [CaCl2]
[1]
  residual activity of PF-1 relative to control as 100: 104%
[2]
  residual activity of PF-2 relative to control as 100: 76%

## [Cl-].[Cl-].[Co+2] [CoCl2]
[1]
  residual activity of PF-1 relative to control as 100: 103%
[2]
  residual activity of PF-2 relative to control as 100: 78%

## [Cl][Cu][Cl] [CuCl2]
[1]
  residual activity of PF-1 relative to control as 100: 37%
[2]
  residual activity of PF-2 relative to control as 100: 20%

## O=C(O)CN(CCN(CC(=O)O)CC(=O)O)CC(=O)O [EDTA, ethylenediaminetetraacetic acid]
[1]
  inhibition of PF-1 activity (in words): inhibited
  residual activity of PF-1 relative to control as 100: 45%
[2]
  inhibition of PF-2 activity (in words): inhibited
  residual activity of PF-2 relative to control as 100: 30%

## [Cl][Fe][Cl] [FeCl2]
[2]
  residual activity of PF-2 relative to control as 100: 28%

## [Cl][Fe]([Cl])[Cl] [FeCl3]
[1]
  residual activity of PF-1 relative to control as 100: 98%
[2]
  residual activity of PF-2 relative to control as 100: 9%

## [Cl][Hg][Cl] [HgCl2]
[1]
  residual activity of PF-1 relative to control as 100: 40%
[2]
  residual activity of PF-2 relative to control as 100: 62%

## [Cl-].[Cl-].[Mg+2] [MgCl2]
[1]
  residual activity of PF-1 relative to control as 100: 107%
[2]
  residual activity of PF-2 relative to control as 100: 74%

## [Cl][Mn][Cl] [MnCl2]
[1]
  residual activity of PF-1 relative to control as 100: 103%
[2]
  residual activity of PF-2 relative to control as 100: 62%

## O=C(O)CI [Monoiodoacetic acid, monoiodoacetic acid]
[1]
  inhibition of PF-1 activity (in words): not inhibited
  residual activity of PF-1 relative to control as 100: 105%
[2]
  inhibition of PF-2 activity (in words): not inhibited
  residual activity of PF-2 relative to control as 100: 100%

## [Cl][Ni][Cl] [NiCl2]
[1]
  residual activity of PF-1 relative to control as 100: 92%
[2]
  residual activity of PF-2 relative to control as 100: 28%

## O=S(=O)(F)Cc1ccccc1 [PNSF, phenylmethanesulfonylfluoride]
[1]
  inhibition of PF-1 activity (in words): not inhibited
  residual activity of PF-1 relative to control as 100: 124%
[2]
  inhibition of PF-2 activity (in words): not inhibited
  residual activity of PF-2 relative to control as 100: 80%

## CC(C)CC(=O)N[C@H](C(=O)N[C@H](C(=O)N[C@@H](CC(C)C)[C@@H](O)CC(=O)N[C@@H](C)C(=O)N[C@@H](CC(C)C)[C@@H](O)CC(=O)O)C(C)C)C(C)C [Pepstatin, pepstatin] (Isovaleryl-VV[Sta]A[Sta]-OH)
[1]
  inhibition of PF-1 activity (in words): not inhibited
  residual activity of PF-1 relative to control as 100: 108%
[2]
  inhibition of PF-2 activity (in words): not inhibited
  residual activity of PF-2 relative to control as 100: 100%

## [Cl-].[Cl-].[Zn+2] [ZnCl2]
[1]
  residual activity of PF-1 relative to control as 100: 88%
[2]
  residual activity of PF-2 relative to control as 100: 58%

## elastase
[3]; listed as elastase powder
  tenderizing effect (in words): some tenderizing effect; also recorded: a proper tenderness cannot be obtained
[3]
  time in which the tenderizing effect is exerted: 24 h
[3]; meat thickness either 5 mm or 15 mm, up to 24 hours
  tenderizing effect, summary of Examples 3 and 4 (in words): cannot exert an effect of properly tenderizing the meat
[4]; listed as elastase powder
  tenderizing effect (in words): some tenderizing effect; also recorded: a proper tenderness cannot be obtained
[4]
  time in which the tenderizing effect is exerted: 24 h
[5]; reagent grade elastase
  tenderizing effect (in words): slightly tenderized; also recorded: the tenderness thus obtained was insufficient

## leupeptine [Leupepsin]
[1]
  inhibition of PF-1 activity (in words): not inhibited
  residual activity of PF-1 relative to control as 100: 82%
[2]
  inhibition of PF-2 activity (in words): not inhibited
  residual activity of PF-2 relative to control as 100: 91%

B1: papain (protein, UniProt P00784 134-345, looked up)
Papain: IPEYVDWRQKGAVTPVKNQGSCGSCWAFSAVVTIEGIIKIRTGNLNEYSEQELLDCDRRSYGCNGGYPWSALQLVAQYGIHYRNTYPYEGVQRYCRSREKGPYAAKTDGVRQVQPYNEGALLYSIANQPVSVVLEAAGKDFQLYRGGIFVGPCGNKVDHAVAAVGYGPNYILIKNSWGTGWGENGYIRIKRGTGNSYGVCGLYTSSFYPVKN
[3]
  tenderizing effect (in words): overtenderizing effect
  time in which the tenderizing effect is exerted: several
[3]; used in a large amount
  time to overtenderizing effect: several minutes to scores of minutes
[3]; used in a reduced amount
  time to overtenderizing effect: several hours
[4]
  tenderizing effect (in words): overtenderizing effect
  time in which the tenderizing effect is exerted: several
[5]; 4° C.
  time to overtenderize the meat: 24 h
[5]; room temperature
  time to overtenderize the meat: ≤ 1 h
